Experimental data reported in US20230053540A1, “TREATMENT OF LIVER INJURY” (Massachusetts Institute of Technology, priority 2019, published 2023).

Tested on: hepatocytes
Assay: Seq-Well scRNA-Seq of hepatocytes after APAP overdose (signature scores, DEG vs untreated)
Format: in vivo, mouse

## CC(=O)Nc1ccc(O)cc1 [APAP, acetaminophen]
A6
  S100a9 pct.1: 0.399
  Saa4 pct.1: 0.437
  Sat1 pct.1: 0.47
  Scp2 pct.1: 0.866
  Sdc4 pct.1: 0.909
  Sec1412 pct.1: 0.484
  Selenbp2 pct.1: 0.609
  Serpina1a pct.1: 0.914
  Serpina3m pct.1: 0.85
  Serpina3n pct.1: 0.747
  Slc16a6 pct.1: 0.47
  Slc22a1 pct.1: 0.36
  Slc25a47 pct.1: 0.869
  Slc39a14 pct.1: 0.678
  Sod1 pct.1: 0.931
  Sqstm1 pct.1: 0.859
  Srgn pct.1: 0.284
  Srxn1 pct.1: 0.821
  St3gal1 pct.1: 0.473
  St3gal5 pct.1: 0.706
  Stat3 pct.1: 0.604
  Stk40 pct.1: 0.382
  Tiparp pct.1: 0.346
  Tmem205 pct.1: 0.695
  Tmsb4x pct.1: 0.332
  Tnfrsf1a pct.1: 0.508
  Tnfrsf12a pct.1: 0.623
  Tra2a pct.1: 0.337
  Trp53inp1 pct.1: 0.637
  Ttc36 pct.1: 0.768
  Ttr pct.1: 0.993
  Tubb2a pct.1: 0.618
  Tubb6 pct.1: 0.368
  Txnrd1 pct.1: 0.838
  Tyrobp pct.1: 0.189
  Ubc pct.1: 0.573
  Ugdh pct.1: 0.721
  Ugt2b5 pct.1: 0.847
  Ugt2b36 pct.1: 0.745
  Uox pct.1: 0.905
  Upp2 pct.1: 0.274
  Uqcr11 pct.1: 0.606
  Urah pct.1: 0.525
  Wbp1l pct.1: 0.697
  Xbp1 pct.1: 0.692
  Ywhag pct.1: 0.518
  mmu-mir-6240 pct.1: 0.413
  mt-Co2 pct.1: 0.2
  mt-Nd1 pct.1: 0.983
  mt-Nd4 pct.1: 0.964
  n-R5-8s1 pct.1: 0.308
A6 vs UT
  2-Mar avg_logFC: −0.5599
  0610005C13Rik avg_logFC: −0.4251
  0610005C13Rik pct.1: 0.427
  0610007P14Rik A6logFC: −0.257
  1110001J03Rik avg_logFC: −0.4328
  1110001J03Rik pct.1: 0.215
  1110058L19Rik A6logFC: −0.2581
  1500011K16Rik avg_logFC: −0.3296
  1500011K16Rik pct.1: 0.095
  1600014C10Rik avg_logFC: −0.4982
  1600014C10Rik pct.1: 0.167
  1700017B05Rik avg_logFC: 0.3307
  1700017B05Rik pct.1: 0.255
  2010003K11Rik avg_logFC: 0.5884
  2410015M20Rik avg_logFC: −0.4021
  2410015M20Rik pct.1: 0.344
  2810007J24Rik avg_logFC: −0.9143
  2810428I15Rik avg_logFC: −0.2631
  2810428I15Rik pct.1: 0.2
  4931406C07Rik A6logFC: −0.2544
  4931406C07Rik avg_logFC: −0.2544
  4931406C07Rik pct.1: 0.616
  4932438A13Rik A6logFC: 0.2879
  4932438A13Rik avg_logFC: 0.2879
  4932438A13Rik pct.1: 0.329
  8430408G22Rik avg_logFC: −0.5021
  2810428115Rik A6logFC: −0.2631
  Aadac avg_logFC: −0.62
  Aadat A6logFC: −0.3186
  Aass avg_logFC: 0.4775
  Abca1 avg_logFC: 0.7245
  Abcb11 A6logFC: −0.2618
  Abcb11 avg_logFC: −0.2618
  Abcb11 pct.1: 0.618
  Abcc2 A6logFC: 0.2897
  Abcd3 A6logFC: −0.2718
  Abce1 A6logFC: 0.28
  Abce1 avg_logFC: 0.28
  Abce1 pct.1: 0.437
  Abcf1 A6logFC: 0.3032
  Abcf1 avg_logFC: 0.3032
  Abcf1 pct.1: 0.458
  Abcg2 A6logFC: −0.2809
  Abcg2 avg_logFC: −0.2809
  Abcg2 pct.1: 0.294
  Abhd2 avg_logFC: 0.4844
  Acaa1a A6logFC: −0.3018
  Acaa1a avg_logFC: −0.3018
  Acaa1a pct.1: 0.475
  Acaa1b avg_logFC: −0.7328
  Acads A6logFC: −0.3242
  Acat3 A6logFC: −0.3115
  Acat3 avg_logFC: −0.3115
  Acat3 pct.1: 0.427
  Acot13 A6logFC: −0.2886
  Acsl1 avg_logFC: −0.3434
  Acsl1 pct.1: 0.752
  Acsl4 avg_logFC: 0.2985
  Acsl4 pct.1: 0.427
  Acsm1 avg_logFC: −0.3692
  Acsm1 pct.1: 0.527
  Acsm5 A6logFC: −0.2614
  Acsm5 avg_logFC: −0.2614
  Acsm5 pct.1: 0.236
  Actr3 A6logFC: 0.276
  Actr3 avg_logFC: 0.276
  Actr3 pct.1: 0.36
  Acy3 avg_logFC: −0.3137
  Acy3 pct.1: 0.131
  Adamts1 avg_logFC: 0.2826
  Adamts1 pct.1: 0.2
  Adck3 avg_logFC: −0.8761
  Adh1 avg_logFC: −1.255
  Adh4 avg_logFC: −0.5269
  Adh5 avg_logFC: −0.4914
  Adh5 pct.1: 0.649
  Adipor2 avg_logFC: −0.4738
  Adipor2 pct.1: 0.578
  Aes A6logFC: −0.2642
  Aes avg_logFC: −0.2642
  Aes pct.1: 0.535
  Aff4 avg_logFC: 0.6163
  Aff4 pct.1: 0.537
  Agmat avg_logFC: −0.4718
  Agmat pct.1: 0.339
  Agpat2 A6logFC: −0.2982
  Agpat9 avg_logFC: 0.327
  Agxt A6logFC: −0.2584
  Agxt avg_logFC: −0.2584
  Agxt pct.1: 0.601
  Akap13 avg_logFC: 0.4953
  Akap13 pct.1: 0.406
  Akr1c6 avg_logFC: −1.586
  Akr1c14 avg_logFC: −0.5186
  Akr1c14 pct.1: 0.413
  Akr1c20 avg_logFC: −0.5542
  Akr1d1 avg_logFC: −0.2789
  Akr1d1 pct.1: 0.332
  Akr1e1 A6logFC: −0.2582
  Alad avg_logFC: −0.4206
  Alad pct.1: 0.286
  Alb avg_logFC: 0.4203
  Alcam A6logFC: 0.3238
  Alcam avg_logFC: 0.3238
  Alcam pct.1: 0.396
  Aldh1a1 avg_logFC: −0.4788
  Aldh3a2 avg_logFC: −0.8342
  Aldh4a1 A6logFC: −0.2907
  Aldh4a1 avg_logFC: −0.2907
  Aldh4a1 pct.1: 0.425
  Aldh8a1 avg_logFC: −0.6837
  Aldob avg_logFC: 0.3153
  Aldob pct.1: 0.998
  Amacr avg_logFC: −0.4136
  Amacr pct.1: 0.294
  Anapc13 A6logFC: −0.3642
  Ang avg_logFC: −0.6629
  Anxa5 A6logFC: 0.3654
  Apoa2 avg_logFC: −0.5428
  Apoa4 avg_logFC: 1.368
  Apob avg_logFC: 0.5802
  Apobec1 avg_logFC: 0.3051
  Apobec1 pct.1: 0.239
  Apoc1 avg_logFC: −0.8713
  Apoc3 avg_logFC: −0.7688
  Apoe avg_logFC: −0.369
  Apof A6logFC: −0.2522
  Apof avg_logFC: −0.2522
  Apof pct.1: 0.759
  Apoh avg_logFC: −0.2623
  Apoh pct.1: 0.924
  Apol7a avg_logFC: −0.4923
  App avg_logFC: 0.3618
  App pct.1: 0.315
  Aqp9 A6logFC: −0.3109
  Arg1 avg_logFC: 0.3179
  Arg1 pct.1: 0.983
  Arhgap5 avg_logFC: 0.264
  Arhgap5 pct.1: 0.506
  Arhgdia A6logFC: 0.2563
  Arhgdia avg_logFC: 0.2563
  Arhgdia pct.1: 0.317
  Arhgef12 avg_logFC: 0.5908
  Arl4d avg_logFC: −0.5072
  Arpc1b A6logFC: 0.2597
  Arpc1b avg_logFC: 0.2597
  Arpc1b pct.1: 0.263
  Asgr1 avg_logFC: −0.3857
  Asgr1 pct.1: 0.656
  Ash1l avg_logFC: 0.2657
  Ash1l pct.1: 0.301
